The values that follow come from PubChem BioAssay (NCI).

Structures are written as SMILES.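 The compound was tested at five concentrations on cells cultured in 96-well plates, with a 48-hour exposure period. GI50 = concentration required for 50% inhibition of growth. TGI is the concentration that stops growth completely.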

Common to all, as to assay: inhibition of tumour cell growth, NCI panel, 48 h
Test [1] concerns A549 NSCLC.
Test [2] relates to DU-145 prostate.
Test [3] deals with MCF7 breast.
Test [4] has as its system MDA-MB-231 breast.
Test [5] has as its system MOLT-4 leukemia.
The subject of test [6] is NCI-H23 lung.
Test [7] relates to RPMI-8226 leukemia.
Test [8] concerns SK-OV-3 ovarian.
The test system of test [9] is SN12C renal.

As to `CCN1CCCn2c(=O)[nH]c3cc(Br)cc1c32`, the TGI in test [1], in test [2], in [3], in test [4], in test [5] and in test [6] was more than 100 µM in each case. Besides, the TGI in [7], in test [8] and in test [9] was more than 100 µM throughout.
For the compound `Cc1cc2nc(-c3c(N)ncc(C#N)c3-c3ccc(Cl)cc3)[nH]c2cc1C`, the GI50 was 4.17 µM in [1]; 5.68 µM in [2]; 9.34 µM in test [3]; 10.5 µM in test [4]; more than 100 µM in test [5]; 8.1 µM in [6]. Moreover, the GI50 in test [7] was 5.55 µM; in test [8] it was 11.9 µM; in [9], 31 µM. Moreover, the TGI in [1] was 24.9 µM; in [2] it was 27.1 µM; in test [3] it was more than 100 µM; in [4], 44.2 µM; in test [5] it was more than 100 µM; in [6] it was 30.7 µM. The TGI in test [7] was more than 100 µM; in [8] it was 27.9 µM; in [9] it was more than 100 µM.
With `COC1(OC)C=CC(=O)C=C1`, the TGI is 21.3 µM in test [1]; 12.6 µM in test [2]; 8.42 µM in test [3]; 7.2 µM in [4]; more than 95.2 µM in test [5]; 10.6 µM in test [6]. Also, the TGI worked out at 13.5 µM in test [7], 26.3 µM in test [8] and 30.8 µM in test [9].
Take `COc1ccc(NC(=O)CC(=O)N2N=C(N(c3ccccc3)c3ccccc3)CC2c2ccccc2)cc1` (configuration not stated): the TGI in [1], in test [2], in test [3], in test [4], in [5] and in [6] was more than 100 µM throughout. The TGI in test [7], in [8] and in [9] was more than 100 µM throughout.
On to `CC(=Nc1cc(Cl)cc(Cl)c1)c1ccncc1`, for which the TGI in [1], in test [2], in [3], in test [4], in test [5] and in test [6] was more than 100 µM in each case. Besides, the TGI in test [7], in test [8] and in test [9] was more than 100 µM each time.
Turning to `CC(C#N)N(CCc1ccccc1)C(=O)c1ccccc1` (configuration not stated), the TGI in test [1], in [2], in [3], in test [4], in [5] and in [6] was more than 100 µM in each case. The TGI in test [7], in [8] and in [9] was more than 100 µM throughout.
In the case of `N#C/C(=C1/c2cc([N+](=O)[O-])ccc2-c2c1cc([N+](=O)[O-])cc2[N+](=O)[O-])N1CCCCC1`, the TGI in [1], in test [2], in test [3], in test [4], in test [5] and in test [6] was more than 100 µM in each case. The TGI in test [7], in test [8] and in test [9] was more than 100 µM in each case.
For `COc1cc2c(cc1O)CCN(C)[C@H]2Cc1ccc(Oc2c(O)c(OC)cc3c2C[C@H]2c4c(c(OC)c(OC)c(OC)c4-3)CCN2C)cc1`, the TGI turned out to be 10 µM in [1]; 11.5 µM in [2]; 10.7 µM in test [3]; 9.47 µM in test [4]; 11 µM in test [5]; 12.9 µM in test [6]. In addition, the TGI in test [7] turned out to be 5.09 µM; in [8] it was 10.5 µM; in test [9] it was 10.7 µM.
`CC1=NN2C(=N)/C(=C/c3ccccc3)C(=O)N=C2S1`: the TGI in test [1] is more than 100 µM; in test [2], more than 100 µM; in [3], more than 33.6 µM; in [4] it was more than 100 µM; in test [5] it was more than 100 µM; in test [6], more than 100 µM. The TGI in test [7], in test [8] and in test [9] was more than 100 µM in each case.
Turning to `C=CCc1ccccc1C1CC2(C(=O)OC)OC1C(C(=O)OC)=C2C(=O)OC` (configuration not stated), the TGI in test [1], in test [2], in test [3], in test [4], in [5] and in test [6] was more than 10 µM each time. The TGI in test [7], in test [8] and in [9] was more than 10 µM throughout.
On to `CC(=O)O[C@H]1CCC2[C@@H]3CCC4NC(=O)C(C#N)C[C@]4(C)C3CC[C@@]21C` (some centres not stated), for which the TGI in test [1], in [2], in test [3], in test [4], in test [5] and in test [6] was more than 10 µM throughout. The TGI in test [7], in test [8] and in [9] was more than 10 µM in each case.
`Cc1ccc(/C=N\NC(=O)c2ccncc2)s1`: the TGI in test [1], in test [2], in [3], in test [4], in [5] and in [6] was more than 100 µM in each case. Further, the TGI in test [7], in [8] and in [9] was more than 100 µM throughout.
As to `CC1CN=C(c2ccc(CN3CCC(C4CCN(Cc5ccc(C6=NCC(C)N6)cc5)CC4)CC3)cc2)N1` (configuration not stated), the TGI was determined as 46 µM in test [1]; 30.6 µM in test [2]; 37.4 µM in [3]; 36.3 µM in test [4]; 46.5 µM in test [5]; 84.7 µM in test [6]. The TGI turned out to be 46.2 µM in test [7], 53.9 µM in test [8] and 37 µM in test [9].
As to `O=C(NCCCCCCO)c1cccc2cc3ccccc3nc12`, the TGI in [1] is 31.5 µM; in [2] it was 32 µM; in [3], 39.3 µM; in test [4], 40 µM; in test [5] it was 58.5 µM; in [7], 47.3 µM. The TGI in [8] worked out at 47.4 µM; in [9] it was 49.5 µM.
As to `CC1CN=C(c2ccc(-c3nc(-c4ccc(C5=NCC(C)N5)cc4)nc(N(C)C)n3)cc2)N1` (configuration not stated), the TGI in test [1] came out at 12.8 µM; in test [2], 5.59 µM; in test [3], 4.71 µM; in test [4], 3.05 µM; in [5] it was 3.79 µM; in test [6], 9.94 µM. For the same compound, the TGI in test [7] stood at 17.9 µM; in test [8], 5.54 µM; in test [9], 3.87 µM.
Consider `COC(=O)[C@@H]1C=C[C@H](NC(C)=O)C1`, for which the TGI in test [2], in test [3], in [4], in [5], in [6] and in test [7] was more than 100 µM each time. The TGI in test [8] and in [9] was more than 100 µM each time.
Take `CC(C)(Cc1ccccc1)N1C(=O)N1C(C)(C)Cc1ccccc1`: the TGI in [1] is 77.7 µM; in [2], more than 100 µM; in test [3], more than 100 µM; in test [4], more than 100 µM; in test [5], 55.6 µM; in test [6], 65.5 µM. The values for the TGI in [7], in test [8] and in test [9] were 38.5 µM, more than 100 µM and more than 100 µM, respectively.
As to `COC(=O)c1cc(C)ccc1/C=C1\Cc2c(C)cc(C)cc2C1=O`, the TGI was more than 100 µM in [1]; more than 100 µM in test [2]; more than 100 µM in test [3]; more than 58.4 µM in test [4]; more than 100 µM in test [5]; more than 72.3 µM in test [6]. The TGI in [7] and in test [9] was more than 100 µM in each case.
Turning to `O=[N+]([O-])c1ccc2c(c1)n1c(N3CCCC3)[n+]3ccccc3c1c1c3cccc[n+]3c(N3CCCC3)n21`, the TGI in test [1], in test [2], in [3], in [4], in test [5] and in test [6] was more than 100 µM each time. Besides, the TGI in [7] and in test [9] was more than 100 µM throughout.
`NNC(=O)Cn1ccnn1`: the TGI in test [1], in test [2], in test [3], in test [4], in test [5] and in test [6] was more than 100 µM each time. Further, the TGI in test [7] and in test [9] was more than 100 µM throughout.
Regarding `CN(C)CCNC(=O)c1cc(NC(=O)c2cc(NC(=O)CC/C=C3/[C@@H]4CC[C@H]3N=N4)cn2C)cn1C`, the TGI in test [1], in [2], in [3], in test [4], in [5] and in test [6] was more than 100 µM each time. Further, the TGI in [7] and in test [9] was more than 100 µM throughout.
